This is an account of results in article PMC12670405, “Second-Generation AURKA-Targeting PROTACs: Structural Optimization toward in Vivo Degradation in Neuroblastoma” (Journal of Medicinal Chemistry, 2025).

One assay has as its system RPE. In words: IncuCyte live-cell imaging, antiproliferative effect. It counts as cell-based.
The next assay concerns the target T1, NanoLuc-AURKA (Homo sapiens, UniProt O14965).
T1 construct: Plasmids encoding full-length wild-type AURKA fused to Nano-Luc; host or cells: HEK293T
T1 sequence (O14965 1-403): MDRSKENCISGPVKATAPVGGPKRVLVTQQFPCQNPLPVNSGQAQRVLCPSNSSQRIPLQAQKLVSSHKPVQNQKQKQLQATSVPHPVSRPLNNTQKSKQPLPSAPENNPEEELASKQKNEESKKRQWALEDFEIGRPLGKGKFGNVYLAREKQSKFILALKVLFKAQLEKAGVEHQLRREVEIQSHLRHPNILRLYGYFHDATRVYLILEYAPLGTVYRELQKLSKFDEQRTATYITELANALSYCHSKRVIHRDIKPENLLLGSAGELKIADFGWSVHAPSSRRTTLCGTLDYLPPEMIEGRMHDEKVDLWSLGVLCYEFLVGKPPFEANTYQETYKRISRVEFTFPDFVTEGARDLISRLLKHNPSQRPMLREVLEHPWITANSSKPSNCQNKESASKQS
In words: NanoBRET target engagement, live (intact) cells. It is filed as cell-based. The conditions noted are these: intact HEK293T. How it is done: The NanoBRET Target Engagement Assay (Promega) was performed according to the recommended instructions from the manufacturer. Plasmids encoding full-length wild-type AURKA fused to Nano-Luc via AURKA’s C-terminus (Promega, #NV1041) were transfected into HEK293T cells using FuGENE HD (Promega, #E2312). […] The plate was mixed at 900 rpm for 15 s, using an orbital shaker. For the permeabilized-mode, digitonin (Sigma-Aldrich, #D141) was additionally added at a final concentration of 50 μg/mL. Test compounds were subsequently administered in duplicate using the D300e digital dispenser (Tecan), followed by incubation for 2 h (37 °C, 5% CO2). To measure BRET, nanoglo substrate and extracellular nanoluc inhibitor (only in live-mode) (Promega #N2540) were added, and luminescence was measured using the GloMax Discover Microplate Reader (Promega) with a luminescence filter pair of 450 nm (BP filter, donor) and 600 nm (LP filter, acceptor). The NanoBRET ratio was calculated using the following formula: BRET ratio = 1000*[(acceptor signal/donor signal)with tracer – (acceptor signal/donor signal)no tracer]. Relative BRET ratios (%) were generated by normalizing to the negative DMSO control. The experiment was performed once with 2 replicate samples.
All dose–response curves were computed on GraphPad Prism using the Variable Slope (four parameters) equation. Absolute half-maximal degradation (DC50), growth inhibitory (GI50) and enzymatic inhibitory (IC50) concentrations, as well as inhibition constants (Ki) were derived from dose–response curves via interpolation. Statistical tests were performed on GraphPad Prism and detailed in the figure legends. Unless otherwise stated, “n” in the figure legends indicates the number of independent experiments conducted at different times.

Like-named read-outs stand apart in the source and are kept apart here.

On to `Cc1cc(Nc2ccc(F)c(CC3(C(=O)N4CCC(CN5CCN(c6ccc(N7CCC(=O)NC7=O)cn6)CC5)CC4)CCN(Cc4cccc(Cl)c4F)CC3)n2)n[nH]1` [SK4454], for which the GI50 (usually the concentration giving 50% growth inhibition) with RPE (72 h, read-out: Cell GI50 72h) was 221 nM. For the same compound, the “NanoLuc-AURKA engagement in intact cells (in words)” value at NanoLuc-AURKA is “able to bind NanoLuc-AURKA in intact cells”.

With `Cc1cc(Nc2ccc(F)c(CC3(C(=O)N4CCC(F)(CN5CCN(c6ccc(N7CCC(=O)NC7=O)cn6)CC5)CC4)CCN(Cc4cccc(Cl)c4F)CC3)n2)n[nH]1` [SK5527], the GI50 in the assay with RPE (72 h, read-out: Cell GI50 72h) is 460 nM; with RPE (72h, read-out: GI50), roughly 500 nM. The “NanoLuc-AURKA engagement in intact cells (in words)” value at NanoLuc-AURKA is reported as “able to bind NanoLuc-AURKA in intact cells”.
